From ChEMBL document CHEMBL1150338, “Prediction and identification of drug interactions with the human ATP-binding cassette transporter multidrug-resistance associated protein 2 (MRP2; ABCC2)” (J Med Chem, 2008)
Counter-ions that a name gives are not always drawn.

Molecular target: MRP2 (ABCC2) (Homo sapiens, UniProt Q92887)
Experiment: in vitro
[1] = probe estradiol-17-beta-glucuronide
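Note: Inside-out membrane vesicles from Sf9 insect cells expressing human MRP2, measuring uptake of the estradiol glucuronide substrate, expressed as percent of untreated control.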

MRP2 (ABCC2), sequence (Q92887 whole entry): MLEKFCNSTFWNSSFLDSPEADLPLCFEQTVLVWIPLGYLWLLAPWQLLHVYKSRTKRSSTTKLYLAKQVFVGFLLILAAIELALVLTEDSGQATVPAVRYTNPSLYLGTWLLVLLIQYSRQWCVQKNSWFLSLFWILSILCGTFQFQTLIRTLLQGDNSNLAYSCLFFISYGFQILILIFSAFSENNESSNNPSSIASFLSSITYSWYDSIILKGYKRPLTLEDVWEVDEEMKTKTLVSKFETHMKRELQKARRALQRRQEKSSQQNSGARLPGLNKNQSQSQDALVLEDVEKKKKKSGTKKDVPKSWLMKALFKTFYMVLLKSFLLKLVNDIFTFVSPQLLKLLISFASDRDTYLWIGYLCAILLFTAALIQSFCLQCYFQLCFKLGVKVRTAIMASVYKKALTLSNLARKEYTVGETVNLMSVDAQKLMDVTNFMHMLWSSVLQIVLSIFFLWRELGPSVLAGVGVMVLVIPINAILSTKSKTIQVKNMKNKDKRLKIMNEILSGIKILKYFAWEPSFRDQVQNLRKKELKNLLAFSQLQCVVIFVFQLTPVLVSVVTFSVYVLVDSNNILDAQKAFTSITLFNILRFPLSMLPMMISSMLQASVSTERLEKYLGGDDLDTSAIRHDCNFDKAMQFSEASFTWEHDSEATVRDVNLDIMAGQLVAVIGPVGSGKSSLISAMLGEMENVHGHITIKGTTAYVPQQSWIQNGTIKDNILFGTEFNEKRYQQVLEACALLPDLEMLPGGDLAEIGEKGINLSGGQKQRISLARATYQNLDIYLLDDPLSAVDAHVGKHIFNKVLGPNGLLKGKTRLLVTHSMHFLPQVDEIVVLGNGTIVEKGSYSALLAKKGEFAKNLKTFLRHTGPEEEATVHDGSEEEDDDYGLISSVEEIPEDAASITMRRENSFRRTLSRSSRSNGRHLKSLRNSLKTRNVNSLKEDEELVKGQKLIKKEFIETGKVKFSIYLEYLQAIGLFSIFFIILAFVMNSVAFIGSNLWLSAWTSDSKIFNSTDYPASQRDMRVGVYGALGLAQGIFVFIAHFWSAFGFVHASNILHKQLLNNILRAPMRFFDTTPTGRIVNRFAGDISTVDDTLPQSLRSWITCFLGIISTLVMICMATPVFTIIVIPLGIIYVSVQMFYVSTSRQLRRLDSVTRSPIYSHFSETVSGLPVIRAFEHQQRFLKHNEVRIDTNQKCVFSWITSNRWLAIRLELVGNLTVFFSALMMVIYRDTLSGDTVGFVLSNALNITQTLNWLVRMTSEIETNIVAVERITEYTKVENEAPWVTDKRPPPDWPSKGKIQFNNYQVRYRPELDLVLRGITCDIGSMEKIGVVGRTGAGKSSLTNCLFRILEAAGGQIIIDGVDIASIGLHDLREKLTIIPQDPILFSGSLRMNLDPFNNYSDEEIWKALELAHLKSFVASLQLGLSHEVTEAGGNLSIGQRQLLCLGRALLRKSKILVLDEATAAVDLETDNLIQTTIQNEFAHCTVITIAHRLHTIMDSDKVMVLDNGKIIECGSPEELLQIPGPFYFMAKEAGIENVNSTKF
Description: Effect on human MRP2-mediated estradiol-17-beta-glucuronide transport in Sf9 cells inverted membrane vesicles relative to control

SMILES | activity [1] [%] | activity (sf9) [%]
CCC1=C(C)CN(C(=O)NCCc2ccc(S(=O)(=O)NC(=O)N[C@H]3CC[C@H](C)CC3)cc2)C1=O [GLIMEPIRIDE] | 142 | –
Cc1cnc(C(=O)NCCc2ccc(S(=O)(=O)NC(=O)NC3CCCCC3)cc2)cn1 [GLIPIZIDE] | 81 | –
N[C@@H](CCC(=O)N[C@@H](CS)C(=O)NCC(=O)O)C(=O)O [GLUTATHIONE] | – | 116
COc1ccc(Cl)cc1C(=O)NCCc1ccc(S(=O)(=O)NC(=O)NC2CCCCC2)cc1 [GLYBURIDE] | 304 | –
CC1(C)[C@@H](O[C@H]2O[C@H](C(=O)O)[C@@H](O)[C@H](O)[C@H]2O[C@@H]2O[C@H](C(=O)O)[C@@H](O)[C@H](O)[C@H]2O)CC[C@]2(C)[C@H]3C(=O)C=C4[C@@H]5C[C@@](C)(C(=O)O)CC[C@]5(C)CC[C@@]4(C)[C@]3(C)CC[C@@H]12 [GLYCYRRHIZIN] | 5 | –
O=C(CCCN1CCC(O)(c2ccc(Cl)cc2)CC1)c1ccc(F)cc1 [HALOPERIDOL] | 106 | –
NS(=O)(=O)c1cc2c(cc1Cl)NCNS2(=O)=O [HYDROCHLOROTHIAZIDE] | 94 | –
C[C@]12CCC(=O)C=C1CC[C@@H]1[C@@H]2[C@@H](O)C[C@@]2(C)[C@H]1CC[C@]2(O)C(=O)CO [HYDROCORTISONE] | 124 | –
CC(C)Cc1ccc(C(C)C(=O)O)cc1 (centres undefined) [IBUPROFEN] | 130 | –
Cc1ccc(NC(=O)c2ccc(CN3CCN(C)CC3)cc2)cc1Nc1nccc(-c2cccnc2)n1 [IMATINIB MESYLATE] | 74 | –
CC1(C)C(/C=C/C=C/C=C/C=C2\N(CCCCS(=O)(=O)O)c3ccc4ccccc4c3C2(C)C)=[N+](CCCCS(=O)(=O)[O-])c2ccc3ccccc3c21 [INDOCYANINE GREEN] | 5 | –
COc1ccc2c(c1)c(CC(=O)O)c(C)n2C(=O)c1ccc(Cl)cc1 [INDOMETHACIN] | 308 | –
CCc1c2c(nc3ccc(OC(=O)N4CCC(N5CCCCC5)CC4)cc13)-c1cc3c(c(=O)n1C2)COC(=O)[C@]3(O)CC [IRINOTECAN] | 101 | –
NNC(=O)c1ccncc1 [ISONIAZID] | 96 | –
COC(=O)C1=C(C)NC(C)=C(C(=O)OC(C)C)C1c1cccc2nonc12 (centres undefined) [ISRADIPINE] | 46 | –
CC(=O)N1CCN(c2ccc(OC[C@H]3CO[C@](Cn4ccnc4)(c4ccc(Cl)cc4Cl)O3)cc2)CC1 [KETOCONAZOLE] | 76 | –
CC(C(=O)O)c1cccc(C(=O)c2ccccc2)c1 (centres undefined) [KETOPROFEN] | 120 | –
Cc1c(OCC(F)(F)F)ccnc1C[S+]([O-])c1nc2ccccc2[nH]1 (centres undefined) [LANSOPRAZOLE] | 34 | –
Nc1nc2c(c(=O)[nH]1)N(C=O)C(CNc1ccc(C(=O)N[C@@H](CCC(=O)O)C(=O)O)cc1)CN2 (some centres undefined) [LEUCOVORIN] | 103 | –
NCCCC[C@H](N[C@@H](CCc1ccccc1)C(=O)O)C(=O)N1CCC[C@H]1C(=O)O [LISINOPRIL ANHYDROUS] | 43 | –
CN(C)C(=O)C(CCN1CCC(O)(c2ccc(Cl)cc2)CC1)(c1ccccc1)c1ccccc1 [LOPERAMIDE] | 46 | –
Cc1cccc(C)c1OCC(=O)N[C@@H](Cc1ccccc1)[C@@H](O)C[C@H](Cc1ccccc1)NC(=O)[C@H](C(C)C)N1CCCNC1=O [LOPINAVIR] | – | 33
CCOC(=O)N1CCC(=C2c3ccc(Cl)cc3CCc3cccnc32)CC1 [LORATADINE] | 6 | –
CNCCCC12CCC(c3ccccc31)c1ccccc12 [MAPROTILINE] | – | 56
Nc1ccc(O)c(C(=O)O)c1 [MESALAMINE] | 109 | –
CN(Cc1cnc2nc(N)nc(N)c2n1)c1ccc(C(=O)N[C@@H](CCC(=O)O)C(=O)O)cc1 [METHOTREXATE] | – | 130
COCCc1ccc(OCC(O)CNC(C)C)cc1 (centres undefined) [METOPROLOL] | 72 | –

SMILES | activity [1] [%] | activity (sf9) [%]
CC#C[C@]1(O)CC[C@H]2[C@@H]3CCC4=CC(=O)CCC4=C3[C@@H](c3ccc(N(C)C)cc3)C[C@@]21C [MIFEPRISTONE] | 134 | –
O=C1c2c(O)ccc(O)c2C(=O)c2c(NCCNCCO)ccc(NCCNCCO)c21 [MITOXANTRONE] | 175 | –
O=c1c(O)c(-c2ccc(O)cc2O)oc2cc(O)cc(O)c12 [MORIN] | 50 | –
C[C@]12CC[C@H]3[C@@H](CCC4=CC(=O)CC[C@@H]43)[C@@H]1CC[C@@H]2O [NANDROLONE] | 106 | –
COc1ccc2cc([C@H](C)C(=O)O)ccc2c1 [NAPROXEN] | – | 92
O=C1C[C@@H](c2ccc(O)cc2)Oc2cc(O)cc(O)c21 [NARINGENIN] | 207 | –
Cc1ccnc2c1NC(=O)c1cccnc1N2C1CC1 [NEVIRAPINE] | 121 | –
COC(=O)C1=C(C)NC(C)=C(C(=O)OCCN(C)Cc2ccccc2)C1c1cccc([N+](=O)[O-])c1 (centres undefined) [NICARDIPINE] | – | 59
CN1CCC[C@H]1c1cccnc1 [NICOTINE] | – | 101
CNC(=O)c1cccnc1 [NICOTINYL METHYLAMIDE] | 101 | –
CCOC(=O)C1=C(C)NC(C)=C(C(=O)OC)C1c1cccc([N+](=O)[O-])c1 (centres undefined) [NITRENDIPINE] | 224 | –
O=C1CN(/N=C/c2ccc([N+](=O)[O-])o2)C(=O)N1 [NITROFURANTOIN] | – | 94
CNC(=C[N+](=O)[O-])NCCSCc1csc(CN(C)C)n1 [NIZATIDINE] | 110 | –
COc1ccc2c(c1OC)C(=O)O[C@@H]2[C@H]1c2c(cc3c(c2OC)OCO3)CCN1C [NOSCAPINE] | 78 | –
CC1COc2c(N3CCN(C)CC3)c(F)cc3c(=O)c(C(=O)O)cn1c23 (centres undefined) [OFLOXACIN] | 83 | –
COc1ccc2[nH]c([S+]([O-])Cc3ncc(C)c(OC)c3C)nc2c1 (centres undefined) [OMEPRAZOLE] | 101 | –
O=C1Nc2ccc(Cl)cc2C(c2ccccc2)=NC1O (centres undefined) [OXAZEPAM] | 103 | –
CC1(C)S[C@@H]2[C@H](NC(=O)Cc3ccccc3)C(=O)N2[C@H]1C(=O)O [PENICILLIN G] | 76 | –
CCOc1ccc(NC(C)=O)cc1 [PHENACETIN] | 83 | –
S=C=NCCc1ccccc1 [PHENETHYLISOTHIOCYANATE] | 94 | –
[H]/N=C(/N)N/C(=N/[H])NCCc1ccccc1 [PHENFORMIN] | 88 | –
CCC1(c2ccccc2)C(=O)NC(=O)NC1=O [PHENOBARBITAL] | 98 | –
O=C1NC(=O)C(c2ccccc2)(c2ccccc2)N1 [PHENYTOIN] | 125 | –
CN1C(C(=O)Nc2ccccn2)=C(O)c2ccccc2S1(=O)=O [PIROXICAM] | 100 | –
CCCCOc1ccc(OCCCN2CCOCC2)cc1 [PRAMOXINE] | 69 | –
C[C@]12CC[C@H](OS(=O)(=O)O)CC1=CC[C@@H]1[C@@H]2CC[C@]2(C)C(=O)CC[C@@H]12 [PRASTERONE SULFURIC ACID] | 395 | –
CC[C@H](C)C(=O)O[C@H]1C[C@H](O)C=C2C=C[C@H](C)[C@H](CC[C@@H](O)C[C@@H](O)CC(=O)O)[C@H]21 [PRAVASTATIN] | 135 | –

SMILES | activity [1] [%] | activity (sf9) [%]
COc1cc2nc(N3CCN(C(=O)c4ccco4)CC3)nc(N)c2cc1OC [PRAZOSIN] | 78 | –
C[C@]12C=CC(=O)C=C1CC[C@@H]1[C@@H]2[C@@H](O)C[C@@]2(C)[C@H]1CC[C@]2(O)C(=O)CO [PREDNISOLONE] | 110 | –
C[C@]12C=CC(=O)C=C1CC[C@@H]1[C@@H]2C(=O)C[C@@]2(C)[C@H]1CC[C@]2(O)C(=O)CO [PREDNISONE] | 51 | –
CCCN(CCC)S(=O)(=O)c1ccc(C(=O)O)cc1 [PROBENECID] | 110 | –
O[C@](CCN1CCCC1)(c1ccccc1)C1CCCCC1 [PROCYCLIDINE] | 62 | –
CC(=O)[C@H]1CC[C@H]2[C@@H]3CCC4=CC(=O)CC[C@]4(C)[C@H]3CC[C@]12C [PROGESTERONE] | 123 | –
CCCNCC(O)COc1ccccc1C(=O)CCc1ccccc1 (centres undefined) [PROPAFENONE] | – | 58
CC(C)NCC(O)COc1cccc2ccccc12 (centres undefined) [PROPRANOLOL] | 69 | –
O=c1c(O)c(-c2ccc(O)c(O)c2)oc2cc(O)cc(O)c12 [QUERCETIN] | 40 | –
C=C[C@H]1C[N@@]2CC[C@H]1C[C@@H]2[C@@H](O)c1ccnc2ccc(OC)cc12 [QUINIDINE] | 64 | –
C=C[C@H]1C[N@@]2CC[C@H]1C[C@H]2[C@H](O)c1ccnc2ccc(OC)cc12 [QUININE] | 75 | –
CNC(=C[N+](=O)[O-])NCCSCc1ccc(CN(C)C)o1 [RANITIDINE] | 52 | –
COC(=O)[C@H]1[C@H]2C[C@@H]3c4[nH]c5cc(OC)ccc5c4CCN3C[C@H]2C[C@@H](OC(=O)c2cc(OC)c(OC)c(OC)c2)[C@@H]1OC [RESERPINE] | – | 37
Oc1ccc(/C=C/c2cc(O)cc(O)c2)cc1 [RESVERATROL] | 75 | –
CO[C@H]1/C=C/O[C@@]2(C)Oc3c(C)c(O)c4c(O)c(c(/C=N/N5CCN(C)CC5)c(O)c4c3C2=O)NC(=O)/C(C)=C\C=C\[C@H](C)[C@H](O)[C@@H](C)[C@@H](O)[C@@H](C)[C@H](OC(C)=O)[C@@H]1C [RIFAMPIN] | 18 | –
Cc1nc2sccn2c(=O)c1CCN1CCC(=C(c2ccc(F)cc2)c2ccc(F)cc2)CC1 [RITANSERIN] | 86 | –
C[C@@H](NCCc1ccc(O)cc1)[C@@H](O)c1ccc(O)cc1 [RITODRINE] | 113 | –
C=C(C)[C@H]1Cc2c(ccc3c2O[C@@H]2COc4cc(OC)c(OC)cc4[C@@H]2C3=O)O1 [ROTENONE] | 92 | –
C[n+]1cc2c3c(ccc2c2ccc4cc5c(cc4c21)OCO5)OCO3 [SANGUINARIUM CHLORIDE] | 44 | –
CC(C)[C@@H]1NC(=O)[C@H](CCCCN)NC(=O)[C@@H](Cc2c[nH]c3ccccc23)NC(=O)[C@H](Cc2ccc(O)cc2)NC(=O)[C@H](C)N(C)C(=O)[C@H](Cc2ccccc2)NC1=O [SEGLITIDE] | 94 | –
CCC(C)(C)C(=O)O[C@H]1C[C@@H](C)C=C2C=C[C@H](C)[C@H](CC[C@@H]3C[C@@H](O)CC(=O)O3)[C@H]21 [SIMVASTATIN] | 61 | –
CC(C)NCC(O)c1ccc(NS(C)(=O)=O)cc1 (centres undefined) [SOTALOL] | – | 96
C[C@@H]1CN(c2c(F)c(N)c3c(=O)c(C(=O)O)cn(C4CC4)c3c2F)C[C@H](C)N1 [SPARFLOXACIN] | 138 | –
CC(=O)S[C@@H]1CC2=CC(=O)CC[C@]2(C)[C@H]2CC[C@@]3(C)[C@@H](CC[C@@]34CCC(=O)O4)[C@H]12 [SPIRONOLACTONE] | 125 | –
O=C(O)c1cc(/N=N/c2ccc(S(=O)(=O)Nc3ccccn3)cc2)ccc1O [SULFASALAZINE] | 77 | –
